Test results taken from patent publication US20080014585A1, “SYNERGISTIC ACTIVATION OF REGULATORY ELEMENTS BY REL PROTEINS AND A STEROID RECEPTOR” (N.V. Organon, priority 2000, published 2008).
“Also recorded” adds a separate entry of the source.

What was measured:
ERα = ERα (Homo sapiens, UniProt P03372); conditions: cited from earlier work
classical ERE = conditions: transactivation experiments, reference 22; cited from earlier work
human ERα = molecular target: T1, human ERα (Homo sapiens, UniProt P03372); experiment: 5-HT1A receptor promoter (-901luc) luciferase reporter, COS-1 cells cotransfected with NF-κB (p50, p65) and ERα; type: cell-based
T1 construct: expressed in transfected cells; host or cells: COS-1 (monkey)
T1 sequence (P03372 1-595): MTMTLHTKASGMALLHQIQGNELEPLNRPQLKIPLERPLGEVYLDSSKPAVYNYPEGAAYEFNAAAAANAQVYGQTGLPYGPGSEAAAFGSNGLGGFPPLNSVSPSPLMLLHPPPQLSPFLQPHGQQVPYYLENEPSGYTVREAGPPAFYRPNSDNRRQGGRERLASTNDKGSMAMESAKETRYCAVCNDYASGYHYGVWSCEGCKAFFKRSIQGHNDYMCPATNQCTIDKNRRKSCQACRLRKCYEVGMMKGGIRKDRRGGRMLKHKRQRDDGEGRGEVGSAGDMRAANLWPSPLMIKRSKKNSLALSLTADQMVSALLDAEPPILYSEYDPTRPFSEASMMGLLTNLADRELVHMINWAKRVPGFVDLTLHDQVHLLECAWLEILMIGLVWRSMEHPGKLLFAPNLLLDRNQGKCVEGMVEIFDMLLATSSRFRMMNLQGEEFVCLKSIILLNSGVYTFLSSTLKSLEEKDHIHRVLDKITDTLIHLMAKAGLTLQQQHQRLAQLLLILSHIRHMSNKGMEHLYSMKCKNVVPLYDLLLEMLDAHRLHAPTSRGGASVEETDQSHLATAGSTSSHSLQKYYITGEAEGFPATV
Description: Depicted is the induction of luciferase activity evoked by NF-κB over cells transfected with empty expression vector. Bars represent the mean of at least three independent experiments ±S.D. (B) COS-1 cells were transiently transfected with 4×NF-κ B(HIV)tkluc in combination with empty expression vector or expression vectors encoding the p50 and p65 subunits of NF-κB and expression vectors encoding ERα or ERβ. Cells were either untreated (white bars) or treated with 10^−8 M E2 (black bars) for 24 h. Depicted is the induction of luciferase activity evoked by NF-κB over cells transfected with empty expression vector. Bars represent the mean of at least three independent experiments ±S.D.
(A) COS-1 cells were transiently transfected with the −901luc reporter construct together with empty expression vector or expression vectors encoding the p50 and p65 subunits of NF-κB in combination with expression vectors encoding ERα and treated with E2, OH-T or ICI for 24 h as indicated. Depicted is the induction of luciferase activity evoked by NF-κB over cells transfected with empty expression vector. Bars represent the mean of at least three independent experiments ±S.D. FIG. 4. […] Depicted is the induction of luciferase activity evoked by the NF-κB subunits over cells transfected with empty expression vector. Bars represent the mean of at least three independent experiments ±S.D.
Cell Culture. […]

In the case of 4-hydroxytamoxifen, the “transcription of genes under the control of an AP-1 element with ERα” value (ERα) is listed as “activated”, the “transcription of genes regulated by a classical ERE” value (classical ERE) is listed as “inhibited transcription” and the “enhancement of 5-HT1A receptor promoter activity by ERα and NF-κB” value (human ERα) is listed as “further induced; also recorded: as potent as E2”.
